System: subgenomic HCV replicon in Huh-7 cells
Experiment: HCV replicon assay
Type: cell-based
Details: Huh-7 cells with subgenomic HCV replicon, luciferase (LUC) reporter, 72 hours, 1% DMSO; read-out: EC50 (50% inhibitory concentration) in HCV replicon cells
Procedure: Huh-7 cells containing the self-replicating, subgenomic HCV replicon with a stable luciferase (LUC) reporter were cultured in Dulbecco's modified Eagle's medium (DMEM) containing 2 mM L-glutamine and supplemented with 10% heat-inactivated fetal bovine serum (FBS), 1% penicillin-streptomyocin, 1% nonessential amino acids, and 0.5 mg/mL G418.
Determination of 50% inhibitory concentration (EC50) of compounds in HCV replicon cells were performed by the following procedure. On the first day, 5,000 HCV replicon cells were plated per well in a 96-well plate. On the following day, test compounds were solubilized in 100% DMSO to 100× the desired final testing concentration. Each compound was then serially diluted (1:3) up to 9 different concentrations. Compounds in 100% DMSO are reduced to 10% DMSO by diluting 1:10 in cell culture media. The compounds were diluted to 10% DMSO with cell culture media, which were used to dose the HCV replicon cells in 96-well format. The final DMSO concentration was 1%. The HCV replicon cells were incubated at 37° C. for 72 hours. At 72 hours, cells were processed when the cells are still subconfluent. Compounds that reduce the LUC signal are determined by Bright-Glo Luciferase Assay (Promega, Madison, Wis.). Percent Inhibition was determined for each compound concentration in relation to the control cells (untreated HCV replicon) to calculate the EC50.

Q: Which EC50 does the source give for `CC(C)OC(=O)[C@H](C)NP(=S)(OC[C@H]1O[C@@H](n2ccc(=O)[nH]c2=O)[C@](C)(O)[C@@H]1O)Oc1ccccc1` (stereo partly drawn) [Compound 1, 2′-C-methyluridine-5′-(O-phenyl-N—(S)-1-(isopropoxycarbonyl)ethyl)thiophosphoramidate] here?
A: Its EC50 is less than 1000 nM.

— patent publication US9856284B2, “Solid forms of a thiophosphoramidate nucleotide prodrug” (Alios BioPharma, Inc., priority 2012, dated 2018)
